Structures can show the parent of a compound that is named as a salt.

Our source for the EC50 values is patent publication US8202856B2 (Merck Serono SA, priority 2007, dated 2012).

For the test, the target named is S1P1 receptor (Homo sapiens, UniProt P21453). Kind of test: 35S-GTPγS binding, membranes from CHO cells expressing S1P1. Type of test: biochemical. As to conditions: CHO cell membranes expressing S1P1. Put shortly:
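Membranes (1–10 μg) from CHO cells expressing the receptor were incubated with compound in 20 mM HEPES pH 7.4, 10 mM MgCl2, 140 mM NaCl, 1.7 μM GDP, saponin and 0.2% BSA. [35S]GTPγS (added at 1.5 nM) was then bound for 60 min at 30 °C. Membrane-bound radioactivity, averaged over triplicates, is expressed relative to S1P activation (n=2).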
For orientation: GTPγS is a poorly hydrolysed GTP analogue; its binding reports G protein activation.

Sequence of S1P1 receptor (P21453 whole entry): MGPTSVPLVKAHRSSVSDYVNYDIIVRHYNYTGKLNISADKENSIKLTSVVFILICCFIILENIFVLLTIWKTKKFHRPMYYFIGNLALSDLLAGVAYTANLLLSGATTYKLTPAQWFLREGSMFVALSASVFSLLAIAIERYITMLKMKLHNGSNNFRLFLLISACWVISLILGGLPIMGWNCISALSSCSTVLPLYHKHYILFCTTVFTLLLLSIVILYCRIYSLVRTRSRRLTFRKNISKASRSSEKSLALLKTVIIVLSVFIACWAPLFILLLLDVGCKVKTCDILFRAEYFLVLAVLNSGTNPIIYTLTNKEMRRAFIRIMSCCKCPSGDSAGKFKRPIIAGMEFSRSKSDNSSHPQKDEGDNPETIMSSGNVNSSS

Consider `OCc1cccc(-c2noc(-c3nnn(-c4ccccc4F)c3-c3ccncc3)n2)c1` [Example 111, (3-{5-[1-(2-fluorophenyl)-5-pyridin-4-yl-1H-1,2,3-triazol-4-yl]-1,2,4-oxadiazol-3-yl}phenyl)methanol], for which the response was half-maximal at 54 nM (EC50).
Then `CS(=O)(=O)NC1CCN(Cc2ccc(-c3noc(-c4nnn(-c5ccccc5F)c4-c4ccncc4)n3)cc2)CC1` [Example 146, N-[1-(4-{5-[1-(2-fluorophenyl)-5-pyridin-4-yl-1H-1,2,3-triazol-4-yl]-1,2,4-oxadiazol-3-yl}benzyl)piperidin-4-yl]methanesulfonamide], with 360 nM; and `Cc1ccc(-c2noc(-c3nnn(-c4ccccc4F)c3-c3ccncc3)n2)cc1` [Example 107, 4-{1-(2-fluorophenyl)-4-[3-(4-methylphenyl)-1,2,4-oxadiazol-5-yl]-1H-1,2,3-triazol-5-yl}pyridine], with 49 nM.
For the compound `Fc1ccccc1-n1nnc(-c2nc(-c3c(F)cccc3F)no2)c1-c1ccncc1` [Example 99, 4-[4-[3-(2,6-difluorophenyl)-1,2,4-oxadiazol-5-yl]-1-(2-fluorophenyl)-1H-1,2,3-triazol-5-yl]pyridine], the response was half-maximal at 106 nM (EC50).
As for `NC(=O)C1CCN(Cc2ccc(-c3noc(-c4nnn(-c5ccccc5F)c4-c4ccncc4)n3)cc2)CC1` [Example 115, 11-(4-{5-[1-(2-fluorophenyl)-5-pyridin-4-yl-1H-1,2,3-triazol-4-yl]-1,2,4-oxadiazol-3-yl}benzyl)piperidine-4-carboxamide], the figure is 246 nM.
Consider `Nc1ccc(-c2noc(-c3nnn(-c4ccccc4F)c3-c3ccncc3)n2)cn1` [Example 118, 5-{5-[1-(2-fluorophenyl)-5-pyridin-4-yl-1H-1,2,3-triazol-4-yl]-1,2,4-oxadiazol-3-yl}pyridin-2-amine], for which it took 131 nM to reach a half-maximal effect (EC50). This EC50 lies about 1.9-fold lower than the previous one.
Then `Fc1ccccc1-n1nnc(-c2nc(-c3cccc(CN4CCC4)c3)no2)c1-c1ccncc1` [Example 148, 4-[4-{3-[3-(azetidin-1-ylmethyl)phenyl]-1,2,4-oxadiazol-5-yl}-1-(2-fluorophenyl)-1H-1,2,3-triazol-5-yl]pyridine formate], with 508 nM.
Then `COCc1c(-c2nc(-c3ccc(CN)cc3)no2)nnn1-c1ccccc1F` [Example 81, 1-(4-{5-[1-(2-fluorophenyl)-5-(methoxymethyl)-1H-1,2,3-triazol-4-yl]-1,2,4-oxadiazol-3-yl}phenyl)methanamine], with 236 nM.
As for `COCc1c(-c2nc(-c3ccccc3OC)no2)nnn1-c1ccccc1F` [Example 50, 5-[1-(2-fluorophenyl)-5-(methoxymethyl)-1H-1,2,3-triazol-4-yl]-3-(2-methoxyphenyl)-1,2,4-oxadiazole], the figure is 443 nM; as for `COc1ccc(-c2noc(-c3nnn(-c4ccccc4F)c3-c3ccccn3)n2)cc1` [Example 57, 2-{1-(2-fluorophenyl)-4-[3-(4-methoxyphenyl)-1,2,4-oxadiazol-5-yl]-1H-1,2,3-triazol-5-yl}pyridine], 959 nM; as for `O=C(O)[C@@H]1CCCN1Cc1ccc(-c2noc(-c3nnn(-c4ccccc4F)c3-c3ccncc3)n2)cc1` [Example 159, 1-(4-{5-[1(2-fluorophenyl)-5-pyridin-4-yl-1H-1,2,3-triazol-4-yl]-1,2,4-oxadiazol-3-yl}benzyl)-L-proline], 574 nM.
Regarding `OCc1ccc(-c2noc(-c3nnn(-c4ccccc4F)c3-c3ccncc3)n2)cc1` [Example 108, (4-{5-[1-(2-fluorophenyl)-5-pyridin-4-yl-1H-1,2,3-triazol-4-yl]-1,2,4-oxadiazol-3-yl}phenyl)methanol], the EC50 (in general, the concentration that produces a half-maximal response) stood at 21 nM.
As for `O=C(O)[C@H]1CC[C@@H](NCc2ccc(-c3noc(-c4nnn(-c5ccccc5F)c4-c4ccncc4)n3)cc2)C1` [Example 169, (1S, 3R)-3-(4-(5-(1-(2-fluorophenyl)-5-(pyridin-4-yl)-1H-1,2,3-triazol-4-yl)-1,2,4-oxadiazol-3-yl)benzylamino)cyclopentanecarboxylic acid], the figure is 8 nM; as for `Fc1ccccc1-n1nnc(-c2nc(-c3ccc4c(c3)CCN4)no2)c1-c1ccncc1` [Example 156, 5-{5-[1-(2-fluorophenyl)-5-pyridin-4-yl-1H-1,2,3-triazol-4-yl]-1,2,4-oxadiazol-3-yl}indoline hydrochloride], 27 nM.
Then `O=C(O)C1(NCc2ccc(-c3noc(-c4nnn(-c5ccccc5F)c4-c4ccncc4)n3)cc2)CC1` [Example 162, 1-(4-(5-(1-(2-fluorophenyl)-5-(pyridin-4-yl)-1H-1,2,3-triazol-4-yl)-1,2,4-oxadiazol-3-yl)benzylamino)cyclopropanecarboxylic acid], with 211 nM.
As for `Fc1ccccc1-n1nnc(-c2nc(-c3cnccn3)no2)c1-c1ccncc1` [Example 119, 2-{5-[1-(2-fluorophenyl)-5-pyridin-4-yl-1H-1,2,3-triazol-4-yl]-1,2,4-oxadiazol-3-yl}pyrazine], the figure is 1260 nM; as for `Fc1ccccc1-n1nnc(-c2nc(-c3ccncc3)no2)c1C1CCCO1` (centres unmarked) [Example 56, 4-{5-[1-(2-fluorophenyl)-5-(tetrahydrofuran-2-yl)-1H-1,2,3-triazol-4-yl]-1,2,4-oxadiazol-3-yl}pyridine], 1850 nM; as for `Fc1ccccc1-c1noc(-c2nnn(-c3ccccc3F)c2C2CCCC2)n1` [Example 78, 5-[5-cyclopentyl-1-(2-fluorophenyl)-1H-1,2,3-triazol-4-yl]-3-(2-fluorophenyl)-1,2,4-oxadiazole], 397 nM.
The compound `Fc1ccccc1-n1nnc(-c2nc(-c3ccc(Cn4cccn4)cc3)no2)c1-c1ccncc1` [Example 171, 4-(1-(2-fluorophenyl)-4-{3-[4-(1H-pyrazol-1-ylmethyl)phenyl]-1,2,4-oxadiazol-5-yl}-1H-1,2,3-triazol-5-yl)pyridine] gave an EC50 of 11 nM.
As for `O=C(O)c1ccc(-c2noc(-c3nnn(-c4ccccc4F)c3-c3ccccc3)n2)cc1` [Example 24, 4-{5-[1-(2-Fluorophenyl)-5-phenyl-1H-1,2,3-triazole-4-yl]-1,2,4-oxadiazole-3-yl}benzoic acid], the figure is 1840 nM; as for `Nc1c(Cl)cc(-c2noc(-c3nnn(-c4ccccc4F)c3-c3ccncc3)n2)cc1Cl` [Example 117, 2,6-dichloro-4-{5-[1-(2-fluorophenyl)-5-pyridin-4-yl-1H-1,2,3-triazol-4-yl]-1,2,4-oxadiazol-3-yl}aniline], 9 nM.
`CC(C)c1c(-c2nc(-c3cc(F)ccc3F)no2)nnn1-c1ccccc1F` [Example 63, 3-(2,5-difluorophenyl)-5-[1-(2-fluorophenyl)-5-isopropyl-1H-1,2,3-triazol-4-yl]-1,2,4-oxadiazole] returned an EC50 of 310 nM.
`CC(C)(C)OC(=O)NCc1ccc(-c2noc(-c3nnn(-c4ccccc4F)c3-c3ccncc3)n2)cc1` [Example 74, tert-butyl (4-{5-[1-(2-fluorophenyl)-5-pyridin-4-yl-1H-1,2,3-triazol-4-yl]-1,2,4-oxadiazol-3-yl}benzyl)carbamate]: the EC50 was found to be 1100 nM. Compared with the last compound, the EC50 is about 3.5-fold higher.
Then `CN(CC(=O)O)Cc1ccc(-c2noc(-c3nnn(-c4ccccc4F)c3-c3ccncc3)n2)cc1` [Example 130, N-(4-{5-[1-(2-fluorophenyl)-5-pyridin-4-yl-1H-1,2,3-triazol-4-yl]-1,2,4-oxadiazol-3-yl}benzyl)-N-methylglycine], with 45 nM.
As for `Fc1ccccc1-n1nnc(-c2nc(-c3ccc(CNC4CC4)cc3)no2)c1-c1ccncc1` [Example 164, N-(4-{5-[1-2-fluorophenyl)-5-pyridin-4-yl-1H-1,2,3-triazol-4-yl]-1,2,4-oxadiazol-3-yl}benzyl)cyclopropanamine formate], the figure is 27 nM.
Take `CNCc1cccc(-c2noc(-c3nnn(-c4ccccc4F)c3-c3ccncc3)n2)c1` [Example 133, 1-(3-{5-[1-(2-fluorophenyl)-5-pyridin-4-yl-1H-1,2,3-triazol-4-yl]-1,2,4-oxadiazol-3-yl}phenyl)-N-methylmethanamine formate]: a half-maximal effect (EC50) was put at 646 nM. Against the preceding compound, the EC50 is about 24-fold higher.
As for `COCc1c(-c2nc(-c3ccc(Cn4cncn4)cc3)no2)nnn1-c1ccccc1F` [Example 176, 5-[1-(2-fluorophenyl)-5-(methoxymethyl)-1H-1,2,3-triazol-4-yl]-3-[4-(1H-1,2,4-triazol-1-ylmethyl)phenyl]-1,2,4-oxadiazole], the figure is 105 nM; as for `Fc1ccccc1-n1nnc(-c2nc(-c3cccnc3)no2)c1C1CCCO1` (centres unmarked) [Example 54], 953 nM.
Then `OCC1CCCN(Cc2ccc(-c3noc(-c4nnn(-c5ccccc5F)c4-c4ccncc4)n3)cc2)C1` (centres unmarked) [Example 140, [1-(4-{5-[1-(2-fluorophenyl)-5-pyridin-4-yl-1H-1,2,3-triazol-4-yl]-1,2,4-oxadiazol-3-yl}benzyl)piperidin-3-yl]methanol], with 530 nM.
